Laboratory results published in patent publication US9953129B2, “Patient stratification and determining clinical outcome for cancer patients” (Agency for Science, Technology and Research, priority 2011, dated 2018).

Legend:
Assay type in all cases: cell-based
NBT-II cells [1] = assay: EMT spot migration assay, EGF induced EMT; details: for IC50: EMT induced by EGF (20 ng/mL), NBT-II cells, read-out: Cell Dispersion IC50 (nM) EGF
Protocol: (§1) Stably transfected mcherry fluorescence-labeled NET-II cells are maintained in DMEM supplemented with 10% fetal bovine serum (FBS, Thermo Scientific), 1 μg/mL puromycin (Sigma), 100 units/mL penicillin−100 units/mL streptomycin (1×pen-strep, Invitrogen) and 2 mM L-glutamine (Invitrogen).
(§2) Test compounds were purchased from various vendors (Selleck Chemicals, Sigma Aldrich, SYN|thesis Med Chem, and Tocris Bioscience). For screening studies, test compounds at both 0.25 mM and 1.0 mM concentrations in DMSO are prepared, each occupying a single well in columns 2 to 11 of 96-well V-bottom plates (Greiner). For dose response studies, selected test compounds were prepared in duplicate wells and serial diluted in DMSO, starting a 1.0 mM concentration. Compound stock plates were stored at −20° C. and thawed at room temperature before use.
(§3) A schematic for the spot migration assay is illustrated in FIG. 2. Cells were grown up to 80% confluency in tissue culture flasks prior to cell plating. Cells were first trypsinized, concentrated and re-suspended to a density of 5×10^6 cell/mL in CO2 independent medium (Invitrogen) supplemented with 10% FBS. The cell suspension was then evenly aliquoted into the wells of 2 columns of a 96-well V-bottom plate. Using a robotic liquid handling station (Bravo, Agilent Technologies), 0.5 μL of cell suspension was transferred from the 2 columns of the cell suspension-loaded plate and deposited into the center of the wells of 2 columns of a 96-well clear bottom, black assay plate (Corning). This process was repeated six times so that all 96 wells of the assay plate were deposited with a cell suspension spot. The plate was then sealed to minimize evaporation of the cell suspension spots and transferred to a 37° C., 5% CO2 incubator to allow for cells to attach to the culture surface. After one hour, the plate was gently washed with medium once to remove unattached cells, refreshed with 100 μL assay medium (DMEM supplemented with 10% FBS, 1× pen-strep and 2 mM L-glutamine), and then further incubated to allow for cell-cell contacts to establish in the cell colonies.
Four tiled, non-overlapping images were acquired around the center of each well, which were then stitched together during image analysis to generate a montage covering an area of 3.2 mm×3.2 mm. These images (T1) represent the initial state of the cell colonies before EMT induction.
After the T1 images are acquired, 1 μL of test compounds were transferred from compound stock plates and added to the assay plates. […] The cultures were then further incubated overnight.
The next day, 50 μL of growth factor containing medium was added each well of the assay plates. For each of the EGF, HGF or IGF-1 induced EMT spot migration assays, the final growth factor concentrations was adjusted in each well to be 20 ng/mL EGF (Sigma), 4 ng/mL HGF (Calbiochem) or 150 ng/mL IGF-1 (R&D Systems), respectively. The cultures were then incubated for another 24 hours, to allow for EMT and sufficient cell motility/dispersion to occur in the cell colonies.
Finally, the cell colonies were imaged again using the confocal microplate imager as described above. These images (T2) represent the final state of the cell colonies after compound treatment and EMT induction. The acquired T1 and T2 image sets for each assay plate were then subjected to image analysis.
Acquired image sets were loaded into image analysis routine developed using Metamorph software. Briefly, a complete image of the entire cell colony in a well was first obtained by stitching the four tiled, non-overlapping images together. Image analysis consists of counting the cell number and measuring the area occupied by the cells. The positive nuclei were segmented using a wavelet decomposition scheme to remove the photonic noise and the inhomogeneous background. A watershed procedure was used to refine the result by separating the confluent nuclei.

SKOV3 cells = assay: EMT reversal assay (morphology, Western blot) in SKOV3; details: SKOV3, 2 μM for 3 days
Protocol: (§4) SKOV3, HEY and OVCAR-2 cells were maintained in RPMI (Invitrogen) supplemented with 10% fetal bovine serum (FBS, Thermo Scientific), 1 μg/mL puromycin (Sigma), 100 units/mL penicillin−100 units/mL streptomycin (1× pen-strep, Invitrogen) and 2 mM L-glutamine (Invitrogen). AZD0530 and BIBF-1120 were purchased from Selleck Chemicals and SYN|thesis Med Chem respectively. DMSO was used as a vehicle to dissolve both compounds. A stock concentration of 10 mM was prepared for both compounds and stored at −20° C. and aliquots were thawed at room temperature before use. Cells were grown up to 80% confluency in tissue culture flasks prior to cell plating. Cells were first trypsinized, concentrated and re-suspended to a density of 1×10^6 cell/mL in RPMI supplemented with 10% FBS. For each cell lines, 1×10^5 cells were plated onto 100 mm cell culture treated dishes (Nunc) for each condition. The cells were then allowed to attach to the culture dish surface and grow overnight in 37° C., 5% CO2 incubator. In drug conditions, the cells were then incubated with each of the compounds at a final concentration of 2 μM for 3 days to allow cell-cell contacts to establish in the dispersed culture. The medium was aspirated from the culture dishes and the cells were washed with PBS Ca^2+, Mg^2+ before they were snap-frozen with liquid nitrogen. Cells were lysed with RIPA buffer (Sigma) supplemented with protease inhibitor cocktail (Calbiochem) and phosphatase inhibitor cocktail (Roche). Protein concentration was measured using BCA (Pierce) protocol provided by the manufacturer. 8% polyacrylamide gels were used for the separation of proteins and transferred to PDVF membranes (Millipore). Membranes were blocked in 5% non-fat milk (Bio-rad) and incubated at 4 degree Celsius overnight with primary antibodies. E-cadherin antibody was purchased from BD laboratories, MMP13 antibody was purchased from Millipore and Tubulin was purchased from Sigma. […] The raw intensity of the protein bands were quantified using GeneTools software (Syngene).

NBT-II cells [2] = assay: EMT spot migration assay, HGF induced EMT; details: EMT induced by HGF (4 ng/mL), read-out: Cell Dispersion IC50 (nM) HGF
Protocol: as §1, §2, §3
After 4 hours of incubation, the cell colonies for each well were imaged using a confocal microplate imager (MetaXpress Ultra, Molecular Devices) with 10× Plan Fluor objective, 561 nm laser excitation and 593/40 nm emission filter configuration. Four tiled, non-overlapping images were acquired around the center of each well, which were then stitched together during image analysis to generate a montage covering an area of 3.2 mm×3.2 mm. These images (T1) represent the initial state of the cell colonies before EMT induction.
After the T1 images are acquired, 1 μL of test compounds were transferred from compound stock plates and added to the assay plates. […]

HEY cells = assay: EMT reversal assay (morphology, Western blot) in HEY; details: 2 μM for 3 days
Protocol: as §4

OVCAR-2 cells = assay: EMT reversal assay (morphology, Western blot) in OVCAR-2; details: OVCAR-2, 2 μM for 3 days
Protocol: as §4

NBT-II cells [3] = assay: EMT spot migration assay, IGF-1 induced EMT; details: EMT induced by IGF-1 (150 ng/mL), read-out: Cell Dispersion IC50 (nM) IGF-1
Protocol: as §1, §2
as §3, with “After one hour, the plate was gently washed with medium once to remove unattached cells, refreshed with 100 μL assay medium (DMEM supplemented with 10% FBS, 1× pen-strep and 2 mM L-glutamine), and then further incubated to allow for cell-cell contacts to establish in the cell colonies.” left out

Compound | IC50 (NBT-II cells [1]) | IC50 (NBT-II cells [2]) | IC50 (NBT-II cells [3]) | other results
CS(=O)(=O)N1CCN(Cc2cc3nc(-c4cccc5[nH]ncc45)nc(N4CCOCC4)c3s2)CC1 [GDC-0941] |  |  | 490 nM | 
Cn1cc(-c2ccc3nnc(C(F)(F)c4ccc5ncccc5c4)n3n2)cn1 [JNJ.38877605] |  | 43 nM |  | 
S=C(NCc1ccc2c(c1)OCO2)N1CCN(c2ncnc3c2oc2ccccc23)CC1 [MP-470] | 510 nM | 970 nM | 580 nM | 
Cc1ccc(-c2nn(C(C)(C)C)c3ncnc(N)c23)cc1 [PP 1] | 1720 nM |  |  | 

More lines, main results first:

IC50 (NBT-II cells [1]) | IC50 (NBT-II cells [2]) | IC50 (NBT-II cells [3]) | Compound | other results
350 nM |  |  | COc1cc2ncnc(Nc3cccc(Cl)c3)c2cc1OC [AG 1478] | Cell Dispersion ratio (NBT-II cells [1]; PosCtrl condition: [AG1478]=6.67 microM and [EGF]=20 ng/mL, NegCtrl 2.50±0.12): 1.48±0.05
565 nM | 650 nM |  | CN1CCN(CCOc2cc(OC3CCOCC3)c3c(Nc4c(Cl)ccc5c4OCO5)ncnc3c2)CC1 [AZD 0530] | Morphology after treatment (SKOV3 cells; vs DMSO): restored the epithelioid-like morphology; E-cadherin protein levels (Western blot) (SKOV3 cells; vs vehicle): greater increase; MMP13 protein levels (Western blot) (SKOV3 cells; vs vehicle): greater reduction; Morphology after treatment (HEY cells; vs DMSO): restored the epithelioid-like morphology; E-cadherin protein levels (Western blot) (HEY cells; vs vehicle): greater increase; MMP13 protein levels (Western blot) (HEY cells; vs vehicle): greater reduction; Morphology after treatment (OVCAR-2 cells; vs DMSO): formed tighter cobblestone-like cell colonies; E-cadherin protein levels (Western blot) (OVCAR-2 cells; vs vehicle): increased; MMP13 protein levels (Western blot) (OVCAR-2 cells; vs vehicle): reduced
 | 471 nM | 534 nM | Cn1cnc2c(F)c(Nc3ccc(Br)cc3Cl)c(C(=O)NOCCO)cc21 [AZD 6244] | 
6600 nM |  |  | Cc1cc(N2CCOCC2)cc2[nH]c(-c3c(NC[C@@H](O)c4cccc(Cl)c4)cc[nH]c3=O)nc12 [BMS 536924] | 
590 nM |  |  | COc1cc2ncnc(Nc3ccc(O)c(Br)c3)c2cc1OC [WHI-P 154] | 
